This assay relates to P388 leukemia ip, CD2F1 mice, survival T/C. Description: NCI In Vivo Anticancer Drug Screen. Data for tumor model P388 Leukemia (intraperitoneal) in CD2F1 (CDF1) mice. The following applies: endpoint: median survival time, higher = longer survival. In short, it runs like this:
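Mice carrying the transplanted tumor received test compound or vehicle. Survival was recorded in each group, and the value is the treated-group measurement divided by that of the vehicle-treated control group.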

Where [1] appears, read: dose: 100.0 mg/kg/injection, schedule: Q01DX001 (ip), vehicle: saline with Tween-80.
Setting [2] is: dose: 400.0 mg/kg/injection, schedule: Q01DX001 (ip), vehicle: saline with Tween-80.
[3] abbreviates: dose: 100.0 mg/kg/injection, schedule: Q04DX003 (ip), vehicle: Klucel (hydroxypropylcellulose) (HPC).
Where [4] appears, read: dose: 200.0 mg/kg/injection, schedule: Q04DX003 (ip), vehicle: Klucel (hydroxypropylcellulose) (HPC).
[5] abbreviates: dose: 400.0 mg/kg/injection, schedule: Q04DX003 (ip), vehicle: Klucel (hydroxypropylcellulose) (HPC).
[6] abbreviates: dose: 50.0 mg/kg/injection, schedule: Q01DX005 (ip), vehicle: Klucel (hydroxypropylcellulose) (HPC).
[7] abbreviates: dose: 100.0 mg/kg/injection, schedule: Q01DX005 (ip), vehicle: Klucel (hydroxypropylcellulose) (HPC).
[8] abbreviates: dose: 200.0 mg/kg/injection, schedule: Q01DX005 (ip), vehicle: Klucel (hydroxypropylcellulose) (HPC).
The mark [9] stands for this setting: dose: 50.0 mg/kg/injection, schedule: Q01DX005 (ip), vehicle: saline with Tween-80.
Where [10] appears, read: dose: 100.0 mg/kg/injection, schedule: Q01DX005 (ip), vehicle: saline with Tween-80.
Setting [11] is: dose: 200.0 mg/kg/injection, schedule: Q01DX005 (ip), vehicle: saline with Tween-80.
The mark [12] stands for this setting: dose: 12.5 mg/kg/injection, schedule: Q01DX005 (ip), vehicle: Klucel (hydroxypropylcellulose) (HPC).
Where [13] appears, read: dose: 25.0 mg/kg/injection, schedule: Q01DX005 (ip), vehicle: Klucel (hydroxypropylcellulose) (HPC).
Setting [14] is: dose: 50.0 mg/kg/injection, schedule: Q04DX003 (ip), vehicle: saline with Tween-80.
Where [15] appears, read: dose: 66.0 mg/kg/injection, schedule: Q04DX003 (ip), vehicle: saline with Tween-80.
Where [16] appears, read: dose: 100.0 mg/kg/injection, schedule: Q01DX009 (ip), vehicle: saline with Tween-80.
Setting [17] is: dose: 100.0 mg/kg/injection, schedule: Q04DX003 (ip), vehicle: saline with Tween-80.
Setting [18] is: dose: 50.0 mg/kg/injection, schedule: Q01DX009 (ip), vehicle: saline with Tween-80.
[19] abbreviates: dose: 200.0 mg/kg/injection, schedule: Q01DX009 (ip), vehicle: saline with Tween-80.
[20] abbreviates: dose: 25.0 mg/kg/injection, schedule: Q01DX009 (ip), vehicle: saline with Tween-80.
[21] abbreviates: dose: 60.0 mg/kg/injection, schedule: Q01DX005 (ip), vehicle: saline with Tween-80.
The mark [22] stands for this setting: dose: 120.0 mg/kg/injection, schedule: Q01DX005 (ip), vehicle: saline with Tween-80.
The mark [23] stands for this setting: dose: 240.0 mg/kg/injection, schedule: Q01DX005 (ip), vehicle: saline with Tween-80.

“And” between values parts separate entries of the source, which are not always exact repeats. Equal values may be shown once. Toxic doses and inconclusive results are not listed.

In PubChem BioAssay AID330 (DTP/NCI, 2004) one finds T/C data, which are given here for 30 compounds.

Regarding `CC(O)(CCCCCl)c1nc2ccccc2s1` (stereo unspecified), the T/C under setting [1] is 98 % of control; the T/C (dose: 200.0 mg/kg/injection, schedule: Q01DX001 (ip), vehicle: saline with Tween-80) was 103 % of control; the T/C under setting [2] was 92 % of control.
Turning to `CSC(=O)N(C)C(=O)Nc1cccc([N+](=O)[O-])c1`, the T/C reads like this: under setting [3], 100 % of control; under setting [4], 99 % of control; under setting [5], 90 % of control.
Turning to `OCc1c(-c2ccc(Cl)cc2)c(-c2ccc(Cl)cc2)c2n1CCC2`, the T/C reads like this: under setting [6], 92 % of control; under setting [7], 92 % of control; under setting [8], 92 % of control.
Consider `Brc1cc2c(cc1C=NC1CCCCC1)OCO2`, for which the T/C is 99 % of control (dose: 100.0 mg/kg/injection, schedule: Q01DX001 (ip), vehicle: Klucel (hydroxypropylcellulose) (HPC)); 101 % of control (dose: 200.0 mg/kg/injection, schedule: Q01DX001 (ip), vehicle: Klucel (hydroxypropylcellulose) (HPC)); 101 % of control (dose: 400.0 mg/kg/injection, schedule: Q01DX001 (ip), vehicle: Klucel (hydroxypropylcellulose) (HPC)).
For the compound `CN1C(=O)N(C)C(=O)C(Nc2ccc([N+](=O)[O-])cc2)(SCCO)C1=O`, the T/C is 100 % of control under setting [9], 104 % of control under setting [10] and 104 % of control under setting [11].
For the compound `Cc1cccc2c(SCCCCCCSc3c4ccccc4nc4c(C)cccc34)c3ccccc3nc12`, the T/C is 90 % of control (dose: 60.0 mg/kg/injection, schedule: Q01DX005 (ip), vehicle: Klucel (hydroxypropylcellulose) (HPC)); 92 % of control (dose: 120.0 mg/kg/injection, schedule: Q01DX005 (ip), vehicle: Klucel (hydroxypropylcellulose) (HPC)); 91 % of control (dose: 240.0 mg/kg/injection, schedule: Q01DX005 (ip), vehicle: Klucel (hydroxypropylcellulose) (HPC)).
Turning to `Cc1cc(N/N=C/c2ccnc3ccccc23)c2cc3c(cc2n1)OCO3`, the T/C is, setting by setting: under setting [12], 90 % of control and 93 % of control; under setting [13], 100 % of control and 105 % of control; under setting [6], 103 % of control and 108 % of control.
With `O=C(O)CCC/C=N/O`, the T/C runs as follows: under setting [3], 98 % of control; under setting [4], 99 % of control; under setting [5], 102 % of control.
For the compound `CCCOP(=S)(N1CC1C)N1CC1(C)C` (stereo unspecified), the T/C by setting is: (dose: 12.5 mg/kg/injection, schedule: Q04DX003 (ip), vehicle: saline with Tween-80) 122 % of control; under setting [14], 154 % of control; under setting [15], 186 % of control; under setting [16], 113 % of control; under setting [17], 227 % of control; (dose: 150.0 mg/kg/injection, schedule: Q04DX003 (ip), vehicle: saline with Tween-80) 118 % of control.
Turning to `COc1ccc2c(c1)OC(C)(C)C(c1ccccc1)C2c1ccc(O)c([N+](=O)[O-])c1` (stereo unspecified), the T/C under setting [6] was 109 % of control and the T/C under setting [7] was 101 % of control.
Take `Cc1cc(C)n2ncc(Br)c2n1`: the T/C by setting is: under setting [9], 100 % of control; under setting [10], 100 % of control; under setting [11], 94 % of control.
On to `CN1c2ccccc2S(=O)(=O)n2c(-c3ccccc3Cl)nnc21`, for which the T/C was 97 % of control (dose: 25.0 mg/kg/injection, schedule: Q01DX001 (ip), vehicle: saline with Tween-80); 96 % of control (dose: 50.0 mg/kg/injection, schedule: Q01DX001 (ip), vehicle: saline with Tween-80); 100 % of control and 95 % of control under setting [1]; 90 % of control under setting [2].
As to `Cc1ccc(N2C(=O)c3ccccc3NC2(C)CCl)cc1` (stereo unspecified), the T/C is, setting by setting: under setting [18], 103 % of control; under setting [16], 103 % of control; under setting [19], 112 % of control.
In the case of `COCC(O)CN1CCN(c2ccccc2C)CC1` (stereo unspecified), the T/C reads like this: (dose: 25.0 mg/kg/injection, schedule: Q04DX003 (ip), vehicle: saline with Tween-80) 100 % of control; under setting [14], 100 % of control; under setting [17], 90 % of control.
Consider `CCOc1nc(N)c(C(=O)c2ccc(O)c(O)c2)s1`, for which the T/C reads like this: under setting [6], 111 % of control; under setting [7], 109 % of control; under setting [8], 87 % of control.
For `Cc1ccc(C2c3c(c4ccccc4n3C(=O)c3ccccc3)C(=O)NN2C(=O)c2ccccc2)cc1` (stereo unspecified) the same measures were 97 % of control, 90 % of control and 95 % of control.
As to `CC(C)N1CCN(c2ccc(OCC3COC(Cn4cncn4)(c4ccc(Cl)cc4Cl)O3)cc2)CC1` (stereo unspecified), the T/C is, setting by setting: under setting [6], 100 % of control; under setting [7], 101 % of control.
As for `Cc1ccc2c(c1)N=C(Nc1ccccc1)N=S2(C)=O` (stereo unspecified), the T/C (dose: 12.5 mg/kg/injection, schedule: Q01DX009 (ip), vehicle: saline with Tween-80) is 93 % of control; the T/C under setting [20] is 92 % of control; the T/C under setting [18] is 117 % of control and 119 % of control; the T/C under setting [16] is 104 % of control.
As for `CCCCCCC(=O)/C=C/c1cc(Cl)cc(Cl)c1`, the T/C by setting is: under setting [9], 95 % of control; under setting [10], 91 % of control; under setting [11], 92 % of control.
For the compound `Cc1nc2[nH]cc(-c3ccccc3)c2c(=N)n1-c1ccccc1`, the T/C is, setting by setting: under setting [12], 102 % of control; under setting [13], 106 % of control; under setting [6], 100 % of control and 104 % of control.
With `Cc1c(N(C)c2ccccc2)c(=S)n(C)c(=S)n1C`, the T/C runs as follows: under setting [6], 89 % of control; under setting [7], 100 % of control; under setting [8], 90 % of control.
As to `CC[N+]1(CC)CCCCC1`, the T/C was 109 % of control (dose: 3.12 mg/kg/injection, schedule: Q01DX009 (ip), vehicle: saline); 109 % of control (dose: 6.25 mg/kg/injection, schedule: Q01DX009 (ip), vehicle: saline); 105 % of control (dose: 12.5 mg/kg/injection, schedule: Q01DX009 (ip), vehicle: saline).
In the case of `Clc1cccc(Cl)c1C(Nc1ncccn1)Nc1ncccn1`, the T/C is 106 % of control under setting [6], 100 % of control under setting [7] and 97 % of control under setting [8].
Take `COc1cc([C@@H]2c3cc4c(cc3[C@H](OC(C)=O)[C@H]3COC(=O)[C@@H]23)OCO4)cc(OC)c1OC`: the T/C by setting is: under setting [20], 118 % of control; (dose: 29.3 mg/kg/injection, schedule: Q04DX003 (ip), vehicle: saline with Tween-80) 88 % of control; under setting [18], 150 % of control; under setting [15], 100 % of control; under setting [17], 115 % of control.
Take `O=C(O)/C=C/c1c2ccc(=O)c(O)c-2oc2c(O)c(O)ccc12`: the T/C is, setting by setting: under setting [21], 93 % of control; under setting [22], 93 % of control; under setting [23], 92 % of control.
On to `CSc1ncc(Br)c(Sc2nccn2C)n1`, for which the T/C by setting is: under setting [21], 112 % of control; under setting [22], 117 % of control; under setting [23], 114 % of control.
As to `C[n+]1ccccc1-c1ccc[n+](CCCC[n+]2cccc(-c3cccc[n+]3C)c2)c1`, the T/C by setting is: under setting [21], 106 % of control; under setting [22], 116 % of control.
For the compound `Nc1nc2nc[nH]c2c(=O)[nH]1`, the T/C runs as follows: under setting [20], 97 % of control; under setting [18], 98 % of control; under setting [16], 90 % of control; (dose: 100.0 mg/kg/injection, schedule: Q01DX009 (ip), vehicle: suspension in saline) 97 % of control; under setting [19], 90 % of control; (dose: 200.0 mg/kg/injection, schedule: Q01DX009 (ip), vehicle: suspension in saline) 92 % of control. In addition, the T/C (dose: 400.0 mg/kg/injection, schedule: Q01DX009 (ip), vehicle: suspension in saline) is 87 % of control.
Consider `[Cu+2].[O-]/C(=N\N=C/c1ccco1)c1ccccc1O.[O-]/C(=N\N=C/c1ccco1)c1ccccc1O.[OH3+].[OH3+]`, for which, where the note is “dose: 400.0 mg/kg/injection, schedule: Q04DX002 (ip), vehicle: saline with Tween-80”, the T/C is 93 % of control.
As to `Nc1ccccc1Sc1cc(Cl)nnc1Cl`, the T/C is 93 % of control under setting [18], 95 % of control under setting [16] and 99 % of control under setting [19].
